Settings: Liquid

CCCCn1cc[n+](C)c1.F[B-](F)(F)F [1-butyl-3-methylimidazolium tetrafluoroborate]
Settings | mass density [kg/m3]
239.75 K, 1875.4 kPa | 1243.62
244.15 K, 9187.2 kPa | 1243.32
244.15 K, 30106 kPa | 1251.69
250.8 K, 41033 kPa | 1251.23
251.15 K, 20631 kPa | 1242.83
251.62 K, 1431.5 kPa | 1234.33
256.79 K, 51047 kPa | 1250.8
257.25 K, 10286 kPa | 1233.95
257.26 K, 30540 kPa | 1242.41
262.28 K, 59764 kPa | 1250.41
263.49 K, 40569 kPa | 1241.97
263.7 K, 20360 kPa | 1233.5
264.47 K, 1197.4 kPa | 1225.08
269.79 K, 50298 kPa | 1241.52
270.25 K, 9963.8 kPa | 1224.68
270.25 K, 30434 kPa | 1233.04
275.57 K, 59083 kPa | 1241.11
276.95 K, 19845 kPa | 1224.21
276.97 K, 40555 kPa | 1232.57
278.13 K, 1660 kPa | 1215.35
283.48 K, 50231 kPa | 1232.1
284.06 K, 30274 kPa | 1223.71
284.1 K, 10163 kPa | 1214.93
290.09 K, 59872 kPa | 1231.63
291.27 K, 40686 kPa | 1223.19
291.46 K, 20613 kPa | 1214.42
292.09 K, 1445.8 kPa | 1204.99
292.09 K, 1940.4 kPa | 1204.98
298.12 K, 105.9 kPa | 1201.65
298.12 K, 9550.8 kPa | 1204.57
298.13 K, 10109 kPa | 1204.56
298.14 K, 10428 kPa | 1204.76
298.14 K, 29887 kPa | 1213.94
298.58 K, 50942 kPa | 1222.67
305.03 K, 19306 kPa | 1204.07
305.53 K, 898.6 kPa | 1194.9
305.54 K, 60508 kPa | 1222.17
305.67 K, 40148 kPa | 1213.41
313.03 K, 9790.3 kPa | 1194.22
313.04 K, 29821 kPa | 1203.5
313.04 K, 30149 kPa | 1203.7
313.05 K, 10270 kPa | 1194.38
313.06 K, 29280 kPa | 1203.51
313.61 K, 50546 kPa | 1212.83
320.1 K, 328.6 kPa | 1184.62
320.51 K, 19693 kPa | 1193.85
321.4 K, 60815 kPa | 1212.26
321.61 K, 40890 kPa | 1202.88
327.98 K, 48935 kPa | 1202.42
328.18 K, 10050 kPa | 1184.05
328.18 K, 28863 kPa | 1193.3
328.18 K, 29052 kPa | 1193.14
328.18 K, 29263 kPa | 1193.3
328.22 K, 10050 kPa | 1184.05
336.35 K, 39210 kPa | 1192.7
336.68 K, 20276 kPa | 1183.44
337.09 K, 59633 kPa | 1201.76
344.2 K, 29113 kPa | 1182.9
344.31 K, 48811 kPa | 1192.12
353.68 K, 59697 kPa | 1191.42
354.16 K, 40617 kPa | 1182.17
